Converted amounts (≈) assume the structure as drawn.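 Test compounds were applied to cells in 96-well plates for 48 hours at 5 doses. GI50 = concentration required for 50% inhibition of growth. The concentration for full growth arrest is given as TGI.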
Legend:
Test in all cases: NCI-60 cell line screen, 48 h
OVCAR-5 ovarian = tested on: OVCAR-5 ovarian
RXF 393 renal = tested on: RXF 393 renal
KM12 colon = tested on: KM12 colon
COLO 205 colon = tested on: COLO 205 colon
ACHN renal = tested on: ACHN renal
M14 melanoma = tested on: M14 melanoma
NCI-H522 lung = tested on: NCI-H522 lung
LOX IMVI melanoma = tested on: LOX IMVI melanoma
SN12C renal = tested on: SN12C renal
IGROV1 ovarian = tested on: IGROV1 ovarian
EKVX NSCLC = tested on: EKVX NSCLC
SK-MEL-5 melanoma = tested on: SK-MEL-5 melanoma
NCI/ADR-RES ovarian = tested on: NCI/ADR-RES ovarian
NCI-H23 lung = tested on: NCI-H23 lung
786-0 renal = tested on: 786-0 renal
SF-539 CNS = tested on: SF-539 CNS
A549 NSCLC = tested on: A549 NSCLC
SK-OV-3 ovarian = tested on: SK-OV-3 ovarian
HS 578T breast = tested on: HS 578T breast
MCF7 breast = tested on: MCF7 breast
HCT-15 colon = tested on: HCT-15 colon
HOP-92 NSCLC = tested on: HOP-92 NSCLC
U251 CNS = tested on: U251 CNS
CAKI-1 renal = tested on: CAKI-1 renal
SNB-19 CNS = tested on: SNB-19 CNS
MOLT-4 leukemia = tested on: MOLT-4 leukemia
SK-MEL-2 melanoma = tested on: SK-MEL-2 melanoma
OVCAR-3 ovarian = tested on: OVCAR-3 ovarian
SK-MEL-28 melanoma = tested on: SK-MEL-28 melanoma
NCI-H226 lung = tested on: NCI-H226 lung
NCI-H460 lung = tested on: NCI-H460 lung
UACC-62 melanoma = tested on: UACC-62 melanoma
MDA-N = tested on: MDA-N
MALME-3M melanoma = tested on: MALME-3M melanoma
K-562 leukemia = tested on: K-562 leukemia
PC-3 prostate = tested on: PC-3 prostate
DU-145 prostate = tested on: DU-145 prostate
SF-268 CNS = tested on: SF-268 CNS
HOP-62 NSCLC = tested on: HOP-62 NSCLC
TK-10 renal = tested on: TK-10 renal
HCT-116 colon = tested on: HCT-116 colon
RPMI-8226 leukemia = tested on: RPMI-8226 leukemia
A498 renal = tested on: A498 renal
OVCAR-4 ovarian = tested on: OVCAR-4 ovarian
MDA-MB-435 = tested on: MDA-MB-435
OVCAR-8 ovarian = tested on: OVCAR-8 ovarian
SNB-75 CNS = tested on: SNB-75 CNS
MDA-MB-231 breast = tested on: MDA-MB-231 breast
HT29 colon = tested on: HT29 colon
SF-295 CNS = tested on: SF-295 CNS
SW-620 colon = tested on: SW-620 colon
HL-60(TB) leukemia = tested on: HL-60(TB) leukemia
CCRF-CEM leukemia = tested on: CCRF-CEM leukemia
UACC-257 melanoma = tested on: UACC-257 melanoma
SR leukemia = tested on: SR leukemia
BT-549 breast = tested on: BT-549 breast
HCC-2998 colon = tested on: HCC-2998 colon
UO-31 renal = tested on: UO-31 renal

SMILES: COC(=S)OC1CC(n2cnc3c(=O)[nH]cnc32)OC1CO[Si](C)(C)C(C)(C)C (configuration not stated)
- TGI (OVCAR-5 ovarian): > 100 µM
- TGI (RXF 393 renal): > 100 µM
- TGI (KM12 colon): > 100 µM
- TGI (COLO 205 colon): > 100 µM
- TGI (ACHN renal): > 100 µM
- TGI (M14 melanoma): > 100 µM
- TGI (NCI-H522 lung): > 100 µM
- TGI (LOX IMVI melanoma): > 100 µM
- TGI (SN12C renal): > 100 µM
- TGI (IGROV1 ovarian): > 100 µM
- TGI (EKVX NSCLC): > 100 µM
- TGI (SK-MEL-5 melanoma): > 100 µM
- TGI (NCI/ADR-RES ovarian): > 100 µM
- TGI (NCI-H23 lung): > 100 µM
- TGI (786-0 renal): > 100 µM
- TGI (SF-539 CNS): > 100 µM
- TGI (A549 NSCLC): > 100 µM
- TGI (SK-OV-3 ovarian): > 100 µM
- TGI (HS 578T breast): > 100 µM
- TGI (MCF7 breast): > 100 µM
- TGI (HCT-15 colon): > 100 µM
- TGI (HOP-92 NSCLC): > 100 µM
- TGI (U251 CNS): > 100 µM
- TGI (CAKI-1 renal): > 100 µM
- TGI (SNB-19 CNS): > 100 µM
- TGI (MOLT-4 leukemia): > 100 µM
- TGI (SK-MEL-2 melanoma): > 100 µM
- TGI (OVCAR-3 ovarian): > 100 µM
- TGI (SK-MEL-28 melanoma): > 100 µM
- TGI (NCI-H226 lung): > 100 µM
- TGI (NCI-H460 lung): > 100 µM
- TGI (UACC-62 melanoma): > 100 µM
- TGI (MDA-N): > 100 µM
- TGI (MALME-3M melanoma): > 100 µM
- TGI (K-562 leukemia): > 100 µM
- TGI (PC-3 prostate): > 100 µM
- TGI (DU-145 prostate): > 100 µM
- TGI (SF-268 CNS): > 100 µM
- TGI (HOP-62 NSCLC): > 100 µM
- TGI (TK-10 renal): > 100 µM
- TGI (HCT-116 colon): > 100 µM
- TGI (RPMI-8226 leukemia): > 100 µM
- TGI (A498 renal): > 100 µM
- TGI (OVCAR-4 ovarian): > 100 µM
- TGI (MDA-MB-435): > 100 µM
- TGI (OVCAR-8 ovarian): > 100 µM
- TGI (SNB-75 CNS): > 100 µM
- TGI (MDA-MB-231 breast): > 100 µM
- TGI (HT29 colon): > 100 µM
- TGI (SF-295 CNS): > 100 µM
- TGI (SW-620 colon): > 100 µM
- TGI (HL-60(TB) leukemia): > 100 µM
- TGI (CCRF-CEM leukemia): > 100 µM
- TGI (UACC-257 melanoma): > 100 µM
- TGI (SR leukemia): > 100 µM

SMILES: CN(C)c1ccc(/C=N/N=C2\C(=O)Nc3c(Cl)cc(Cl)cc32)cc1
- TGI (OVCAR-5 ovarian): > 100 µM
- TGI (RXF 393 renal): > 100 µM
- TGI (KM12 colon): 36.4 µM
- TGI (COLO 205 colon): > 100 µM
- TGI (ACHN renal): > 100 µM
- TGI (M14 melanoma): > 100 µM
- TGI (LOX IMVI melanoma): > 100 µM
- TGI (SN12C renal): > 100 µM
- TGI (IGROV1 ovarian): > 100 µM
- TGI (EKVX NSCLC): > 100 µM
- TGI (SK-MEL-5 melanoma): > 100 µM
- TGI (NCI/ADR-RES ovarian): 89 µM
- TGI (NCI-H23 lung): > 100 µM
- TGI (786-0 renal): > 100 µM
- TGI (SF-539 CNS): > 100 µM
- TGI (A549 NSCLC): > 100 µM
- TGI (SK-OV-3 ovarian): > 100 µM
- TGI (HS 578T breast): > 100 µM
- TGI (MCF7 breast): > 100 µM
- TGI (HCT-15 colon): > 100 µM
- TGI (HOP-92 NSCLC): > 100 µM
- TGI (U251 CNS): > 100 µM
- TGI (CAKI-1 renal): > 100 µM
- TGI (SNB-19 CNS): > 100 µM
- TGI (MOLT-4 leukemia): > 100 µM
- TGI (SK-MEL-2 melanoma): > 100 µM
- TGI (OVCAR-3 ovarian): > 100 µM
- TGI (SK-MEL-28 melanoma): > 100 µM
- TGI (NCI-H226 lung): > 100 µM
- TGI (NCI-H460 lung): > 100 µM
- TGI (UACC-62 melanoma): > 100 µM
- TGI (MDA-N): 33.8 µM
- TGI (MALME-3M melanoma): > 100 µM
- TGI (K-562 leukemia): > 100 µM
- TGI (BT-549 breast): > 100 µM
- TGI (PC-3 prostate): > 100 µM
- TGI (HOP-62 NSCLC): > 100 µM
- TGI (TK-10 renal): > 100 µM
- TGI (HCT-116 colon): > 100 µM
- TGI (A498 renal): > 100 µM
- TGI (OVCAR-4 ovarian): > 100 µM
- TGI (HCC-2998 colon): > 100 µM
- TGI (MDA-MB-435): > 100 µM
- TGI (OVCAR-8 ovarian): > 100 µM
- TGI (SNB-75 CNS): 56.9 µM
- TGI (MDA-MB-231 breast): > 100 µM
- TGI (HT29 colon): > 100 µM
- TGI (SF-295 CNS): > 100 µM
- TGI (SW-620 colon): > 100 µM
- TGI (HL-60(TB) leukemia): > 100 µM
- TGI (CCRF-CEM leukemia): > 100 µM
- TGI (UACC-257 melanoma): > 100 µM
- TGI (UO-31 renal): > 100 µM
- TGI (SR leukemia): 33 µM

SMILES: CC(=O)OC1CCC(OC(C)=O)[C@H]2[C@@H]1[C@@H]1S[C@H]2c2ccccc21 (some centres not stated)
- GI50 (KM12 colon): 49 µg/mL (≈ 147 µM)
- GI50 (COLO 205 colon): 59.1 µg/mL (≈ 178 µM)
- GI50 (M14 melanoma): 27.9 µg/mL (≈ 84 µM)
- GI50 (NCI-H522 lung): 32.5 µg/mL (≈ 97.7 µM)
- GI50 (LOX IMVI melanoma): 80.6 µg/mL (≈ 242 µM)
- GI50 (EKVX NSCLC): 54.8 µg/mL (≈ 165 µM)
- GI50 (NCI/ADR-RES ovarian): 99.2 µg/mL (≈ 298 µM)
- GI50 (786-0 renal): 85.6 µg/mL (≈ 257 µM)
- GI50 (SK-OV-3 ovarian): 4.09 µg/mL (≈ 12.3 µM)
- GI50 (HS 578T breast): 76.1 µg/mL (≈ 229 µM)
- GI50 (HCT-15 colon): 93.7 µg/mL (≈ 282 µM)
- GI50 (U251 CNS): 81.9 µg/mL (≈ 246 µM)
- GI50 (SK-MEL-28 melanoma): 97.3 µg/mL (≈ 293 µM)
- GI50 (UACC-62 melanoma): 41.4 µg/mL (≈ 124 µM)
- GI50 (MDA-N): 24.2 µg/mL (≈ 72.8 µM)
- GI50 (MALME-3M melanoma): 62.1 µg/mL (≈ 187 µM)
- GI50 (K-562 leukemia): 35.9 µg/mL (≈ 108 µM)
- GI50 (DU-145 prostate): 85.3 µg/mL (≈ 257 µM)
- GI50 (TK-10 renal): 35.7 µg/mL (≈ 108 µM)
- GI50 (A498 renal): 43.9 µg/mL (≈ 132 µM)
- GI50 (OVCAR-4 ovarian): 31.3 µg/mL (≈ 94.1 µM)
- GI50 (HCC-2998 colon): 50.1 µg/mL (≈ 151 µM)
- GI50 (MDA-MB-435): 21.6 µg/mL (≈ 64.9 µM)
- GI50 (SNB-75 CNS): 48.1 µg/mL (≈ 145 µM)
- GI50 (SF-295 CNS): 36 µg/mL (≈ 108 µM)
- GI50 (HL-60(TB) leukemia): 22 µg/mL (≈ 66.1 µM)
- GI50 (CCRF-CEM leukemia): 36.4 µg/mL (≈ 109 µM)
- GI50 (UACC-257 melanoma): 76.8 µg/mL (≈ 231 µM)

— PubChem BioAssay (NCI)
